Ends that are not written are not given here.
Tested on: drug-resistant Mycobacterium tuberculosis
Conditions: 10 micrograms per ml; seven days at 37° C.; strain resistant to PAS, streptomycin and isoniazid

Compound | inhibition of the growth of Mycobacterium tuberculosis [%]
CC(C)C[C@H](NC(=O)CNC(=O)[C@H](Cc1ccc(O)cc1)NC(=O)[C@H](CO)NC(=O)[C@H](Cc1c[nH]c2ccccc12)NC(=O)[C@H](Cc1cnc[nH]1)NC(=O)[C@@H]1CCC(=O)N1)C(=O)N[C@@H](CCCNC(=N)N)C(=O)N1CCC[C@H]1C(=O)NCC(N)=O [Peptide 1] | 100
Met-Gln-Met-Lys-Lys-Val-Leu-Asp-Ser-OH (MQMKKVLDS-OH) [Peptide 2] | 100

— patent US8349805B2, “Use of Gonadorelin as a therapeutic agent” (priority 2007, dated 2013)
